US8952024B2, “Herbicidal pyrimidone derivatives” (E I du Pont de Nemours and Company, priority 2009, dated 2015)

Experiments:
Assay type in all cases: in vivo
[1] = system: barnyardgrass (Echinochloa crus-galli); assay: Test B flooded paddy test; conditions: for Plant response rating, Flood, Barnyardgrass: 250 g ai/ha, flooded paddy test, visual rating on 0 to 100 scale (0 no effect, 100 complete control) after 13 to 15 days; for Plant response rating, Barnyardgrass: Flood (flooded paddy test), 13 to 15 days; for Barnyardgrass plant response rating: Flood, 31 g ai/ha, scale 0 to 100 (0 no effect, 100 complete control)
Description: (§1) Plant species in the flooded paddy test consisted of rice (Oryza sativa), umbrella sedge (Cyperus difformis), ducksalad (Heteranthera limosa) and barnyardgrass (Echinochloa crus-galli) grown to the 2-leaf stage for testing. At the time of treatment, test pots were flooded with water to 3 cm above the soil surface, treated by application of test compounds directly to the paddy water, and then maintained at that water depth for the duration of the test.
(§2) Treated plants and controls were maintained in a greenhouse for 13 to 15 days, after which time all treated plants were visually evaluated and compared to controls. Plant response ratings, summarized in Table B, are based on a scale of 0 to 100 where 0 is no effect and 100 is complete control. A dash (-) response means no test result.

rice (Oryza sativa) = assay: Test B flooded paddy test; conditions: for Plant response rating, Flood, Rice: 250 g ai/ha, flooded paddy test, visual rating on 0 to 100 scale (0 no effect, 100 complete control) after 13 to 15 days; for Plant response rating, Rice: Flood (flooded paddy test), 13 to 15 days; for Rice plant response rating: Flood, 31 g ai/ha, scale 0 to 100 (0 no effect, 100 complete control)
Description: as §1, §2

[2] = system: ducksalad (Heteranthera limosa); assay: Test B flooded paddy test; conditions: for Plant response rating, Flood, Ducksalad: 250 g ai/ha, flooded paddy test, visual rating on 0 to 100 scale (0 no effect, 100 complete control) after 13 to 15 days; for Plant response rating, Ducksalad: Flood (flooded paddy test), 13 to 15 days; for Ducksalad plant response rating: Flood, 31 g ai/ha, scale 0 to 100 (0 no effect, 100 complete control)
Description: as §1, §2

[3] = system: umbrella sedge (Cyperus difformis); assay: Test B flooded paddy test; conditions: for Plant response rating, Flood, Sedge, Umbrella: 250 g ai/ha, flooded paddy test, visual rating on 0 to 100 scale (0 no effect, 100 complete control) after 13 to 15 days; for Plant response rating, Sedge, Umbrella: Flood (flooded paddy test), 13 to 15 days; for Sedge, Umbrella plant response rating: Flood, 31 g ai/ha, scale 0 to 100 (0 no effect, 100 complete control)
Description: as §1, §2

[4] = system: large crabgrass (Digitaria sanguinalis); assay: Test A pre-/postemergence plant response
Description: (§3) Seeds of barnyardgrass (Echinochloa crus-galli), large crabgrass (Digitaria sanguinalis), giant foxtail (Setaria faberii), morningglory (Ipomoea spp.), pigweed (Amaranthus retroflexus), velvetleaf (Abutilon theophrasti), wheat (Triticum aestivum) and corn (Zea mays) were planted into a blend of loam soil and sand and treated preemergence with a directed soil spray using test chemicals formulated in a non-phytotoxic solvent mixture which included a surfactant. At the same time these species were also treated with postemergence applications of test compounds formulated in the same manner.
(§4) Plants ranged in height from two to ten cm and were in the one- to two-leaf stage for the postemergence treatment. Treated plants and untreated controls were maintained in a greenhouse for approximately ten days, after which time all treated plants were compared to untreated controls and visually evaluated for injury. Plant response ratings, summarized in Table A, are based on a 0 to 100 scale where 0 is no effect and 100 is complete control. A dash (-) response means no test result.

[5] = system: barnyardgrass (Echinochloa crus-galli); assay: Test A pre-/postemergence plant response
Description: as §3, §4

[6] = system: wheat (Triticum aestivum); assay: Test A pre-/postemergence plant response
Description: as §3, §4

[7] = system: pigweed (Amaranthus retroflexus); assay: Test A pre-/postemergence plant response
Description: as §3, §4

corn (Zea mays) = assay: Test A pre-/postemergence plant response
Description: as §3, §4

[8] = system: velvetleaf (Abutilon theophrasti); assay: Test A pre-/postemergence plant response
Description: as §3, §4

[9] = system: morningglory (Ipomoea spp.); assay: Test A pre-/postemergence plant response
Description: as §3, §4

[10] = system: giant foxtail (Setaria faberii); assay: Test A pre-/postemergence plant response
Description: as §3, §4

[11] = 62 g ai/ha, scale of 0 to 100 where 0 is no effect and 100 is complete control
[12] = 125 g ai/ha, scale 0 to 100, 0 is no effect, 100 is complete control
[13] = Postemergence, 125 g ai/ha, 0 to 100 scale where 0 is no effect and 100 is complete control
[14] = Postemergence, 500 g ai/ha, visual injury, 0 to 100 scale (0 no effect, 100 complete control), approx. ten days
[15] = Preemergence, 125 g ai/ha, 0 to 100 scale, 0 = no effect, 100 = complete control
[16] = Preemergence, 500 g ai/ha, 0 to 100 scale, 0 = no effect, 100 = complete control
[17] = Postemergence, 125 g ai/ha, visual injury, 0 to 100 scale (0 no effect, 100 complete control), approx. ten days
[18] = Postemergence, 500 g ai/ha, 0 to 100 scale, 0 = no effect, 100 = complete control, approx. ten days
[19] = Preemergence, 500 g ai/ha, visual injury, 0 to 100 scale (0 no effect, 100 complete control), approx. ten days

CCc1cccc(-c2ncc(C(=O)C3=C(O)CCCC3=O)c(=O)n2C2CCCCC2)c1 [Compound 194]
80: Plant response rating, Flood, Ducksalad [2]
0: Plant response rating, Barnyardgrass [1, 11] | Barnyardgrass plant response rating [1] | Plant response rating, Flood, Rice (rice (Oryza sativa)) | Plant response rating, Rice (rice (Oryza sativa); [11]) | Plant response rating, Rice (rice (Oryza sativa); [12]) | Rice plant response rating (rice (Oryza sativa)) | Plant response rating, Sedge, Umbrella [3, 11] | Plant response rating, Sedge, Umbrella [3, 12] | Sedge, Umbrella plant response rating [3] | Plant response rating, Barnyardgrass [5, 15] | Plant response rating, Wheat [6, 13] | Wheat plant response rating [6, 14] | Plant response rating, Wheat [6, 15] | Plant response rating, Wheat [6, 16] | Plant response rating, Corn (corn (Zea mays); [13]) | Plant response rating, Corn (corn (Zea mays); [15]) | Plant response rating, Corn (corn (Zea mays); [16])
40: Ducksalad plant response rating [2] | Plant response rating, Crabgrass, Large [4, 16] | Plant response rating, Barnyardgrass [5, 16]
50: Plant response rating, Ducksalad [2, 11] | Plant response rating, Ducksalad [2, 12] | Plant response rating, Pigweed [7, 15] | Foxtail, Giant plant response rating [10, 14]
65: Plant response rating, Flood, Sedge, Umbrella [3]
100: Barnyardgrass plant response rating [5, 14] | Plant response rating, Pigweed [7, 13] | Pigweed plant response rating [7, 14] | Plant response rating, Pigweed [7, 16] | Plant response rating, Velvetleaf [8, 13] | Velvetleaf plant response rating [8, 14] | Morningglory plant response rating [9, 14]
30: Plant response rating, Velvetleaf [8, 15] | Plant response rating, Foxtail, Giant [10, 13]
90: Crabgrass, Large plant response rating [4, 14] | Plant response rating, Barnyardgrass [5, 13] | Plant response rating, Morningglory [9, 13]
60: Plant response rating, Crabgrass, Large [4, 13]
70: Plant response rating, Velvetleaf [8, 16]
10: Plant response rating, Barnyardgrass [1, 12] | Corn plant response rating (corn (Zea mays); [14])
20: Plant response rating, Crabgrass, Large [4, 15] | Plant response rating, Morningglory [9, 16]
15: Plant response rating, Flood, Barnyardgrass [1]

O=C1CCCC(O)=C1C(=O)c1cnc(-c2ccc(Cl)s2)n(-c2ccccc2)c1=O [Compound 65]
50: Plant response rating, Barnyardgrass [5, 18] | Plant response rating, Velvetleaf [8, 19] | Morningglory plant response rating [9, 17]
90: Velvetleaf plant response rating [8, 17]
100: Plant response rating, Velvetleaf [8, 18]
20: Pigweed plant response rating [7, 17]
10: Plant response rating, Crabgrass, Large [4, 15] | Barnyardgrass plant response rating [5, 17] | Plant response rating, Barnyardgrass [5, 19] | Foxtail, Giant plant response rating [10, 17]
40: Plant response rating, Foxtail, Giant [10, 18] | Plant response rating, Foxtail, Giant [10, 19]
0: Plant response rating, Flood, Barnyardgrass [1] | Plant response rating, Barnyardgrass [1, 11] | Plant response rating, Barnyardgrass [1, 12] | Barnyardgrass plant response rating [1] | Plant response rating, Flood, Rice (rice (Oryza sativa)) | Plant response rating, Rice (rice (Oryza sativa); [11]) | Plant response rating, Rice (rice (Oryza sativa); [12]) | Rice plant response rating (rice (Oryza sativa)) | Plant response rating, Flood, Ducksalad [2] | Plant response rating, Ducksalad [2, 11] | Plant response rating, Ducksalad [2, 12] | Ducksalad plant response rating [2] | Plant response rating, Flood, Sedge, Umbrella [3] | Plant response rating, Sedge, Umbrella [3, 11] | Plant response rating, Sedge, Umbrella [3, 12] | Sedge, Umbrella plant response rating [3] | Plant response rating, Barnyardgrass [5, 15] | Wheat plant response rating [6, 17] | Plant response rating, Wheat [6, 18] | Plant response rating, Wheat [6, 15] | Plant response rating, Wheat [6, 19] | Plant response rating, Pigweed [7, 15] | Plant response rating, Pigweed [7, 19] | Corn plant response rating (corn (Zea mays); [17]) | Plant response rating, Corn (corn (Zea mays); [18]) | Plant response rating, Corn (corn (Zea mays); [15]) | Plant response rating, Corn (corn (Zea mays); [19]) | Plant response rating, Morningglory [9, 15] | Plant response rating, Morningglory [9, 19] | Plant response rating, Foxtail, Giant [10, 15]
60: Plant response rating, Crabgrass, Large [4, 18] | Plant response rating, Pigweed [7, 18] | Plant response rating, Morningglory [9, 18]
30: Crabgrass, Large plant response rating [4, 17] | Plant response rating, Velvetleaf [8, 15]
80: Plant response rating, Crabgrass, Large [4, 19]

CCCn1c(-c2ccco2)ncc(C(=O)C2=C(O)CCCC2=O)c1=O [Compound 110]
20: Plant response rating, Barnyardgrass [1, 12] | Plant response rating, Barnyardgrass [5, 15]
0: Plant response rating, Barnyardgrass [1, 11] | Barnyardgrass plant response rating [1] | Plant response rating, Rice (rice (Oryza sativa); [11]) | Rice plant response rating (rice (Oryza sativa)) | Ducksalad plant response rating [2] | Plant response rating, Wheat [6, 13] | Plant response rating, Wheat [6, 18] | Plant response rating, Wheat [6, 15] | Plant response rating, Wheat [6, 19] | Plant response rating, Corn (corn (Zea mays); [13]) | Plant response rating, Corn (corn (Zea mays); [15]) | Plant response rating, Corn (corn (Zea mays); [19]) | Plant response rating, Foxtail, Giant [10, 15]
75: Plant response rating, Flood, Ducksalad [2] | Plant response rating, Ducksalad [2, 12] | Plant response rating, Flood, Sedge, Umbrella [3]
35: Plant response rating, Sedge, Umbrella [3, 11]
80: Plant response rating, Crabgrass, Large [4, 13] | Plant response rating, Crabgrass, Large [4, 19] | Plant response rating, Pigweed [7, 15]
100: Plant response rating, Pigweed [7, 18] | Plant response rating, Velvetleaf [8, 18] | Plant response rating, Morningglory [9, 18]
10: Plant response rating, Corn (corn (Zea mays); [18]) | Plant response rating, Foxtail, Giant [10, 13] | Plant response rating, Foxtail, Giant [10, 19]
50: Plant response rating, Sedge, Umbrella [3, 12] | Plant response rating, Foxtail, Giant [10, 18]
70: Plant response rating, Velvetleaf [8, 19] | Plant response rating, Morningglory [9, 19]
40: Plant response rating, Flood, Barnyardgrass [1] | Plant response rating, Ducksalad [2, 11] | Plant response rating, Crabgrass, Large [4, 15] | Plant response rating, Morningglory [9, 15]
30: Plant response rating, Flood, Rice (rice (Oryza sativa)) | Plant response rating, Rice (rice (Oryza sativa); [12]) | Sedge, Umbrella plant response rating [3]
90: Plant response rating, Crabgrass, Large [4, 18] | Plant response rating, Barnyardgrass [5, 18] | Plant response rating, Pigweed [7, 13] | Plant response rating, Pigweed [7, 19] | Plant response rating, Velvetleaf [8, 13] | Plant response rating, Morningglory [9, 13]
60: Plant response rating, Barnyardgrass [5, 13] | Plant response rating, Barnyardgrass [5, 19] | Plant response rating, Velvetleaf [8, 15]

CCCCn1c(-c2cccc(C)c2)ncc(C(=O)C2=C(O)CCCC2=O)c1=O [Compound 116]
75: Plant response rating, Flood, Barnyardgrass [1] | Plant response rating, Sedge, Umbrella [3, 11]
85: Plant response rating, Flood, Ducksalad [2]
65: Plant response rating, Barnyardgrass [1, 11]
40: Plant response rating, Morningglory [9, 19]
80: Plant response rating, Ducksalad [2, 11] | Plant response rating, Crabgrass, Large [4, 18] | Plant response rating, Barnyardgrass [5, 13]
10: Plant response rating, Barnyardgrass [5, 15] | Plant response rating, Corn (corn (Zea mays); [18]) | Plant response rating, Foxtail, Giant [10, 15]
70: Plant response rating, Crabgrass, Large [4, 19] | Plant response rating, Barnyardgrass [5, 19] | Plant response rating, Velvetleaf [8, 13]
30: Plant response rating, Crabgrass, Large [4, 15] | Plant response rating, Velvetleaf [8, 15]
60: Plant response rating, Crabgrass, Large [4, 13] | Plant response rating, Pigweed [7, 15] | Plant response rating, Velvetleaf [8, 19] | Plant response rating, Foxtail, Giant [10, 13] | Plant response rating, Foxtail, Giant [10, 19]
100: Plant response rating, Barnyardgrass [5, 18] | Plant response rating, Pigweed [7, 13] | Plant response rating, Pigweed [7, 18] | Plant response rating, Pigweed [7, 19] | Plant response rating, Velvetleaf [8, 18] | Plant response rating, Morningglory [9, 13] | Plant response rating, Morningglory [9, 18]
90: Plant response rating, Flood, Sedge, Umbrella [3] | Plant response rating, Foxtail, Giant [10, 18]
0: Plant response rating, Flood, Rice (rice (Oryza sativa)) | Plant response rating, Rice (rice (Oryza sativa); [11]) | Plant response rating, Wheat [6, 13] | Plant response rating, Wheat [6, 18] | Plant response rating, Wheat [6, 15] | Plant response rating, Wheat [6, 19] | Plant response rating, Corn (corn (Zea mays); [13]) | Plant response rating, Corn (corn (Zea mays); [15]) | Plant response rating, Corn (corn (Zea mays); [19]) | Plant response rating, Morningglory [9, 15]
